Experimental data published in PMC6648837 (ACS Omega, 2019).
Read-outs that look alike come from different tables or passages of the source.

Tests used:
CYP3A4 = CYP3A4 (Homo sapiens, UniProt P08684); assay: CYP3A4 inhibition assay; format: biochemical; conditions: for CYP3A4 inhibition compared in words: versus dillapiol (14, 15: versus 13); for increased CYP3A4 inhibition relative to the methyl ester 4a (factor): esters of primary alcohol 2; for times more potent than dillapiol as CYP3A4 inhibitor: dillapiol = 1
Colorado potato beetle = conditions: in vivo bioassays; cited from earlier work

Chain of CYP3A4 (P08684 whole entry): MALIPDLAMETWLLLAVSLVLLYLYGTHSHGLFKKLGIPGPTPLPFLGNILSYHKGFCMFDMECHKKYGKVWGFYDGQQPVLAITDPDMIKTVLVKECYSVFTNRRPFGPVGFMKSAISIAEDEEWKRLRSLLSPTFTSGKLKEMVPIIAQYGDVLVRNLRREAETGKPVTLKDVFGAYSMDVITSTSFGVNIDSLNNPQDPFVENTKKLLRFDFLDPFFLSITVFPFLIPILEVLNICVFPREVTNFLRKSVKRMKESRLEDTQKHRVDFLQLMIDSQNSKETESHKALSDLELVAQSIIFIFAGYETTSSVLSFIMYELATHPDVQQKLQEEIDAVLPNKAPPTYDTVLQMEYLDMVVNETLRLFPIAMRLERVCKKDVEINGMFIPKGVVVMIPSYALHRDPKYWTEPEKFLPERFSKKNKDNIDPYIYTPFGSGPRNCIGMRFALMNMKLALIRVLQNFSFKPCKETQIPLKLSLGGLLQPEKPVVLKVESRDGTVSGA

Compound: COc1c(CC(C)O)cc2c(c1OC)OCO2 (centres unmarked) [Compound 3]
- CYP3A4 inhibition compared in words (CYP3A4): less potent than dillapiol

Compound: COc1c(CCCOC(C)=O)cc2c(c1OC)OCO2 [Compound 4a]
- CYP3A4 inhibition compared in words (CYP3A4): essentially the same inhibitory effect as dillapiol
- insecticide synergism of pyrethrum (Colorado potato beetle): no insecticide synergism

Compound: CCCCCC(=O)OCCCc1cc2c(c(OC)c1OC)OCO2 [Compound 4d]
- increased CYP3A4 inhibition relative to the methyl ester 4a (factor) (CYP3A4): 2.8
- IC50 (CYP3A4; human, recombinant CYP3A4 (BD Gentest), probe dibenzyl fluorescein (DBF)): 3.3 µM

Compound: COc1c(CCCOC(=O)c2ccccc2)cc2c(c1OC)OCO2 [Compound 4g]
- insecticide synergism of pyrethrum (Colorado potato beetle): no insecticide synergism

Compound: COc1c(CCCOC(=O)c2ccccc2Cl)cc2c(c1OC)OCO2 [Compound 4h]
- IC50 (CYP3A4): 1.3 µM

Compound: COc1c(CCCOC(=O)c2ccc(Cl)cc2)cc2c(c1OC)OCO2 [Compound 4i]
- IC50 (CYP3A4): 1.6 µM
- increased CYP3A4 inhibition relative to the methyl ester 4a (factor) (CYP3A4): greater than 6

Compound: COc1c(CCCOC(=O)c2ccc(Cl)cc2Cl)cc2c(c1OC)OCO2 [Compound 4j]
- increased CYP3A4 inhibition relative to the methyl ester 4a (factor) (CYP3A4): greater than 6

Compound: COc1c(CCCOC(=O)C=Cc2ccccc2)cc2c(c1OC)OCO2 [Compound 4l]
- IC50 (CYP3A4): 2.4 µM

Compound: COc1c(CCCOC(=O)C(c2ccccc2)c2ccccc2)cc2c(c1OC)OCO2 [Compound 4n]
- increased CYP3A4 inhibition by a factor, benzhydryl versus benzyl group (4m) (CYP3A4): 5

Compound: COc1c(CC(C)OC(C)=O)cc2c(c1OC)OCO2 (centres unmarked) [Compound 5a]
- IC50 (CYP3A4): > 20 µM

Compound: COc1c(CC(C)OC(=O)c2ccccc2)cc2c(c1OC)OCO2 (centres unmarked) [Compound 5g]
- IC50 (CYP3A4): 3.5 µM

Compound: C=CCc1cc2c(cc1OC)OCO2 [Compound 8b]
- insecticide synergism of pyrethrum (Colorado potato beetle): increased in vivo synergism relative to dillapiol

Compound: C=CCc1cc2c(cc1OCc1ccccc1Cl)OCO2 [Compound 8f]
- times more potent than dillapiol as CYP3A4 inhibitor (CYP3A4): 86 times

Compound: C=CCc1cc2c(cc1OCc1ccccc1OC)OCO2 [Compound 8g]
- times more potent than dillapiol as CYP3A4 inhibitor (CYP3A4): 0.9 times

Compound: COc1cc2c(cc1CCCOC(=O)C=Cc1ccccc1)OCO2 [Compound 11d]
- IC50 (CYP3A4): 17.2 µM

Compound: O=C(C=Cc1ccccc1)OCCCc1cc2c(cc1OCc1ccccc1)OCO2 [Compound 11e]
- IC50 (CYP3A4): 4.7 µM

Compound: O=C(OCCCc1cc2c(cc1OCc1ccccc1)OCO2)C(c1ccccc1)c1ccccc1 [Compound 11g]
- IC50 (CYP3A4): 1 µM
